Laboratory results: patent US20070037752A1, “Novel alanyl-amino peptidase inhibitors for functionally influencing different cells and treating immunological, inflammatory, neuronal, and other diseases” (priority 2003, published 2007)
Read-outs that look alike come from different tables or passages of the source. One block for each compound: values may come before it.

Molecular target: alanyl aminopeptidases (APN) (Homo sapiens, UniProt P15144)
Test: Inhibition of alanyl aminopeptidase enzymatic activity, fluorogenic substrate (Ala)2-rhodamine 110
Type: biochemical
Method: The inhibition characteristics measured are referred to as IC-50 values or ID50 values (the latter marked with “*”) for said enzyme. The enzymatic activity was determined by means of the fluorogenic substrate/product (Ala)2-rhodamine 110.

[1] = Table 4, unstarred values, read-out: IC50APN
[2] = Table 3, unstarred values, read-out: IC50APN
[3] = Table 8, unstarred values, read-out: IC50APN
[4] = Table 9, unstarred values, read-out: IC50APN
[5] = Table 1, unstarred values, read-out: IC50APN
[6] = Table 3, starred values = ID50, read-out: ID50 APN (values marked with *)

Chain of alanyl aminopeptidases (APN) (P15144 whole entry, species assumed): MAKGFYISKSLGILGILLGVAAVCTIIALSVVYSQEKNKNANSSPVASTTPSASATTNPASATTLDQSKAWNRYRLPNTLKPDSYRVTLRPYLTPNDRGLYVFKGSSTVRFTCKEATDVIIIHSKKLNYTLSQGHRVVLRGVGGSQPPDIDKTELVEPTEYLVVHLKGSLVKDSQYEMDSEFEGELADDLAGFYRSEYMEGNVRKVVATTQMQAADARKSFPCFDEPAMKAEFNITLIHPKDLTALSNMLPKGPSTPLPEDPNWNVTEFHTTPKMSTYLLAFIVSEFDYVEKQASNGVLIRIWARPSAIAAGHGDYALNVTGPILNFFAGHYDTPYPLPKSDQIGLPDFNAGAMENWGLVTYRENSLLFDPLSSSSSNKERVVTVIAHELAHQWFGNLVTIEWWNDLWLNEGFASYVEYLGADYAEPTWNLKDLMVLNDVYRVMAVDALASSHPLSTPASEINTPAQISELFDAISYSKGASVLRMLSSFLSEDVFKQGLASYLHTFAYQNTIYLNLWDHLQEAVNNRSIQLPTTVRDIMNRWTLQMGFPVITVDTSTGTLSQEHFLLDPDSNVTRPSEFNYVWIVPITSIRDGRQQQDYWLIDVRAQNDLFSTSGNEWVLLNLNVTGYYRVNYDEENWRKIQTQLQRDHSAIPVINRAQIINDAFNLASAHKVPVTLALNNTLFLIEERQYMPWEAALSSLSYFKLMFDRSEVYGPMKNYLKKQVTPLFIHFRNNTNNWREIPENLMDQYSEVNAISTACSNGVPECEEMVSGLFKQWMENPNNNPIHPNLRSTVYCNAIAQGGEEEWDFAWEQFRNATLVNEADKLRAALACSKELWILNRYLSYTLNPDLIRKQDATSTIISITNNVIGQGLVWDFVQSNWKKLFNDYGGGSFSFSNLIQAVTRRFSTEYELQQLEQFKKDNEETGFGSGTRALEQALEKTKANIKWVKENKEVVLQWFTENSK

IC50 (Table 13, read-out: IC50APN): 20.8 µM
Structure (SMILES): CCCN1C(=O)C(C#N)=C(C)/C(=C\c2ccc(-c3cccc(Cl)c3C)o2)C1=O [A13.011]

IC50 [1]: 31.8 µM
Structure (SMILES): Cc1cc(C(=O)N/N=C/c2ccc(C)o2)[nH]n1 [A4.100]

IC50 [2]: 8.2 µM
Structure (SMILES): O=C(Nc1cccc(/N=C/c2cc(Br)cc(Br)c2O)c1)c1ccco1 [A3.031]

IC50 [2]: 8 µM
Structure (SMILES): O=C(N/N=C\c1ccco1)c1ccc(S(=O)(=O)N2CCCCCC2)cc1 [A3.029]

IC50 [3]: 50 µM
Structure (SMILES): NC(=S)N/N=C/c1ccco1 [A8.032]

IC50 [2]: 34.7 µM
Structure (SMILES): O=C(Nc1ccccc1C(=O)N/N=C/c1ccco1)c1ccccc1Cl [A3.210]

IC50 [1]: 5 µM
Structure (SMILES): COc1cc(Br)ccc1OCC(=O)N/N=C/c1cc(O)c(O)c(Br)c1Br [A4.003]

IC50 [2]: 20.8 µM
Structure (SMILES): CCCN1C(=O)C(C#N)=C(C)/C(=C\c2ccc(-c3cccc(Cl)c3C)o2)C1=O [A3.112]

IC50 [2]: 41.1 µM
Structure (SMILES): O=C(CCC(=O)Nc1ccccc1)N/N=C/c1ccco1 [A3.234]

IC50 [4]: 19.1 µM
Structure (SMILES): O=C(Cc1ccc([N+](=O)[O-])cc1)N1CCOCC1 [A9.044]

IC50APN (Table 3, unstarred values): “very high
Structure (SMILES): COC(=O)C1=C(N)N2C(=O)CSC2=C(C(=O)OC)C1 [A3.001]

IC50 [1]: 7.2 µM
Structure (SMILES): COc1cc(Br)cc(Br)c1OCC(=O)N/N=C/c1cc(O)c(O)c(Br)c1Br [A4.010]

IC50 [3]: 26.4 µM
Structure (SMILES): Cc1ccc(/C=N/NC2=NC(=O)CS2)o1 [A8.022]

IC50 [1]: 46.6 µM
Structure (SMILES): CC(C)Oc1ccc(Br)cc1C(=O)N/N=C/c1ccco1 [A4.134]

IC50 [1]: 22.4 µM
Structure (SMILES): O=C(N/N=C/c1ccco1)c1ccc(=O)[nH]n1 [A4.063]

IC50 [2]: 20.9 µM
Structure (SMILES): COc1ccc(C[C@@H](N)C(=O)N[C@@H]2[C@H](O)[C@H](n3cnc4c(N(C)C)ncnc43)O[C@@H]2CO)cc1 [A3.114]

IC50 [1]: 8 µM
Structure (SMILES): O=C(N/N=C\c1ccco1)c1ccc(S(=O)(=O)N2CCCCCC2)cc1 [A4.013]

IC50 (Table 9, starred values = ID50, read-out: ID50 APN (values marked with *)): 2.7 µM
Structure (SMILES): CCOC(=O)c1ccc(-c2ccc(/C=C3\C(=O)N(CCO)C(=O)C(C#N)=C3C)o2)cc1 [A9.005]

IC50 [2]: 51.3 µM
Structure (SMILES): CC1CCc2c(sc(NC(=O)C(C(F)(F)F)C(F)(F)F)c2C#N)C1 (centres unmarked) [A3.266]

IC50 [5]: 33 µM
Structure (SMILES): COc1ccc(C(OCCC(=O)NO)c2ccccc2)cc1 (centres unmarked) [A1.014]

IC50 (Table 14, read-out: IC50APN): 23.1 µM
Structure (SMILES): CCOC(=O)C1=C2SCC(=O)N2C(N)=C(C#N)C1 [A14.003]

IC50 [1]: 38.3 µM
Structure (SMILES): O=C(N/N=C/c1ccco1)c1ccc(O)cc1O [A4.122]

IC50 (Table 11, read-out: IC50APN): 15.6 µM
Structure (SMILES): CC(C)C/C=N/NC(=O)c1ccc([N+](=O)[O-])cc1Cl [A11.010]

IC50 [1]: 36.3 µM
Structure (SMILES): CC(/C=N/NC(=O)C(O)c1ccccc1)=C\c1ccco1 (centres unmarked) [A4.118]

IC50 [2]: 23.4 µM
Structure (SMILES): COc1ccc(CCCC(=O)N/N=C/c2ccco2)cc1 [A3.141]

IC50 [4]: 69.3 µM
Structure (SMILES): Cc1ccc(S(=O)(=O)N2CCC(C(=O)N/N=C/c3ccco3)CC2)cc1 [A9.110]

IC50 [1]: 17 µM
Structure (SMILES): COc1cc(/C=N/NC(=O)c2cc(-c3ccco3)n[nH]2)cc(OC)c1OC [A4.043]

IC50 [1]: 38.2 µM
Structure (SMILES): COc1ccc2ccccc2c1-c1cc(C(=O)N/N=C(\C)c2ccco2)[nH]n1 [A4.121]

IC50 [1]: 30 µM
Structure (SMILES): Cc1ccc(/C=N/NC(=O)c2cccc(I)c2)o1 [A4.096]

IC50 [4]: 29.9 µM
Structure (SMILES): O=c1[nH]cc([N+](=O)[O-])cc1C(F)(F)F [A9.077]

IC50 [2]: 25.1 µM
Structure (SMILES): CCc1ccc(OCC(=O)N/N=C\c2ccco2)c([N+](=O)[O-])c1 [A3.153]

IC50 (Table 11, read-out: IC50APN): 37.4 µM
Structure (SMILES): O=C(Nc1ccc(F)cc1)c1ccc([NH+]([O-])O)o1 (centres unmarked) [A11.027]

IC50 [3]: 12.4 µM
Structure (SMILES): O=C1C(Cc2c[nH]c3ccccc23)NC(=S)N1c1ccccc1 (centres unmarked) [A8.009]

IC50 [2]: 41.1 µM
Structure (SMILES): O=[N+]([O-])c1ncn(CCBr)n1 [A3.235]

IC50 [2]: 21.2 µM
Structure (SMILES): COC(=O)c1cc(NC(=O)Cc2cccs2)cc(C(=O)OC)c1 [A3.117]

IC50 (Table 6, read-out: IC50APN): 55.6 µM
Structure (SMILES): O=C(CNS(=O)(=O)c1ccc2c(c1)OCCO2)N/N=C/c1ccco1 [A6.016]

IC50 [6]: 64.9 µM
Structure (SMILES): COc1ccc(C(=O)NCC(=O)N/N=C/c2ccco2)cc1OC [A3.288]

IC50 [1]: 34 µM
Structure (SMILES): O=C(CCC(=O)Nc1cccc(Cl)c1)N/N=C/c1ccco1 [A4.106]

IC50 [6]: 238 µM
Structure (SMILES): COC(=O)c1cc(C(=O)NC2CCSC2=O)cc([N+](=O)[O-])c1 (centres unmarked) [A3.341]

IC50 [1]: 6.9 µM
Structure (SMILES): Cc1ccc(/C=N/NC(=O)c2cn(-c3nonc3N)nn2)o1 [A4.008]

IC50 [5]: 21.8 µM
Structure (SMILES): O=C(CCOC(c1ccc(F)cc1)c1ccc(F)cc1)NO [A1.012]

IC50 [1]: 74.7 µM
Structure (SMILES): O=C(CCc1ccccc1)N/N=C/c1ccco1 [A4.162]

IC50 [4]: 77.4 µM
Structure (SMILES): CCc1c(C)nc2ccccc2c1SCC(=O)O [A9.112]

IC50 [4]: 8.9 µM
Structure (SMILES): N#Cc1cc(N2CC3CC(C2)c2cccc(=O)n2C3)c([N+](=O)[O-])cc1C#N (centres unmarked) [A9.017]

IC50 (Table 12, read-out: IC50APN): 11.5 µM
Structure (SMILES): O=C(CS(=O)(=O)c1ccc(Cl)cc1)NO [A12.021]

IC50 [6]: 81.8 µM
Structure (SMILES): Cc1ccc(OCC(=O)N/N=C\c2ccco2)c(C)c1 [A3.309]

IC50 (Table 7, read-out: IC50APN): 18 µM
Structure (SMILES): Cc1ccc(S(=O)(=O)CNC(=S)c2ccc(Cl)c(Cl)c2)cc1 [A7.010]
